Measured values reported in patent US20230174608A1, “Polypeptide Derivative Having Dual Receptor Agonistic Action and Use Thereof” (TIANJIN INSTITUTE OF PHARMACEUTICAL RESEARCH CO., LTD., priority 2020, published 2023).
Marks after values point to notes of the source that are not given here. Where a SMILES comes first, the peptide text is derived from it.

Experiments:
[1] = system: glucose loaded normal mice; experiment: Glucose loading test on normal mice after single administration; assay type: in vivo, Kunming mice; details: for Blood glucose reduction rate (%) / Blood glucose level after glucose loading: 30 nmol/kg single dose; for Blood glucose reduction rate (%): after glucose loading, versus model control group; for Blood glucose level after glucose loading: glucose 2.5 g/kg intragastric 60 min after administration, measured 30 min after loading; for Blood glucose level after glucose loading / Fasting blood glucose level: n=5; for Fasting blood glucose level: normal mice fasted 6 h, 30 nmol/kg group
Method in brief: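 Male Kunming mice (20-22 g), 5 per group, fasted 6 h, received compound or semaglutide at 30 nmol/kg or saline. Glucose 2.5 g/kg given intragastrically 60 min post-dose; blood glucose measured 30 min after glucose loading.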

[2] = target: T1, GCGR (Homo sapiens, UniProt P47871); experiment: GC receptor-mediated cAMP production in vitro; assay type: cell-based; details: HEK293 cell line stably expressing GCGR
T1 construct: expressed in transfected cells
T1 sequence (P47871 26-477, species assumed): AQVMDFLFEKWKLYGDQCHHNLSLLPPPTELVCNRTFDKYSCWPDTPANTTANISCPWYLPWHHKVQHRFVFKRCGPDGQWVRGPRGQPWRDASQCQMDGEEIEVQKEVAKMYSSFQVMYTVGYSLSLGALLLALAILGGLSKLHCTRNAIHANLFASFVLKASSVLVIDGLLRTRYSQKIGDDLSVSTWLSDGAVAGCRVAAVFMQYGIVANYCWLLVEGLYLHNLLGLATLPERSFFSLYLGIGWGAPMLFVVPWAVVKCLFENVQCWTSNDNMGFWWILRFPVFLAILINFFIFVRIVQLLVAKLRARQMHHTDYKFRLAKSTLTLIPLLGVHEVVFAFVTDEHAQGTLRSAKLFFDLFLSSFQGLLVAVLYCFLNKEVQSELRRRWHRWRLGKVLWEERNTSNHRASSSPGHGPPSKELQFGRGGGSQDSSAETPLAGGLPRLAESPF
Method in brief: (§1)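 HEK293 cells stably expressing human GLP-1R or GCGR are stimulated with compound for 30 min in the dark in serum-free medium with 0.5 mM IBMX, with test dilutions spanning 1 μM down to 10^−3 nM. cAMP is detected after a 60 min room-temperature reaction as the 665/615 nm ratio.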

[3] = target: T2, GLP-1R (Homo sapiens, UniProt P43220); experiment: GLP-1 receptor-mediated cAMP production in vitro; assay type: cell-based; details: HEK293 cell line stably expressing GLP-1R
T2 construct: expressed in transfected cells
T2 sequence (P43220 24-463, species assumed): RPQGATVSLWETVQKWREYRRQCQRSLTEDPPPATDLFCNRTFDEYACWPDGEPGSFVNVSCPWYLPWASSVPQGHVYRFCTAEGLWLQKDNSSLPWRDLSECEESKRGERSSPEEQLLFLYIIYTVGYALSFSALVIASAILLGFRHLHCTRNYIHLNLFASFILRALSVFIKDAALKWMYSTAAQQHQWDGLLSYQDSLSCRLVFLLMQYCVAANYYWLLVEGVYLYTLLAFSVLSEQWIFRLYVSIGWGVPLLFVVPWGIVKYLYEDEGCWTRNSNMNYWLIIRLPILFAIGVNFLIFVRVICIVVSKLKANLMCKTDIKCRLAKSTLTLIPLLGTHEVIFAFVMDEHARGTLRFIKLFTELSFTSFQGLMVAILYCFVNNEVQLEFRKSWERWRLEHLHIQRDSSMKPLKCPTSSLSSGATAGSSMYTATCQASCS
Method in brief: as §1

[4] = system: diet-induced obesity (DIO) mice; experiment: DIO model mice, weight after 2 weeks of administration; assay type: in vivo, C57BL/6N mice; details: 30 nmol/kg s.c. once a day, 14 days
Description: Method: C57BL/6N mice were fed with H10060 high-fat diets to obtain diet-induced obesity (DIO) models, and mice in a control group (n=5) were fed with standard diets. One day before the first administration, the mice in the model group were randomly divided into 6 groups according to their weights (within a range of 40.5-50.5 g), i.e., a model control group, a positive control group, and test compound groups (dgc003, dgc004, dgc010, and dgc017), respectively, 5 mice in each group, which were administered once a day by subcutaneous injection. Saline was subcutaneously injected into each mouse in the blank control group and the model control group every day. The administration was performed for 14 days. The positive control drug and the test compounds were administered at a dose of 30 nmol/kg, and the administration volume for each group was 0.005 mL/g weight. The mice were weighed before each administration, and 72-h food intake was weighed every three days.

[5] = system: diet-induced obesity (DIO) mice; experiment: Obese (DIO) model mice, 23 days of successive administration; assay type: in vivo, C57BL/6J Gpt mice
Description: C57BL/6J Gpt mice (purchased from GemPharmatech (Jiangsu) Co., Ltd.) (6-8-week-old) were fed with H10060 high-fat diet (purchased from Beijing HFK Bioscience Co., Ltd.) to obtain diet-induced obesity (DIO) models, mice in a blank control group (n=5) were fed with standard diets, and all the mice were fed for 11 weeks after being purchased. One day before the first administration, the mice in the model group were randomly divided into 5 groups according to their weights (within a range of 39.5-49.5 g), i.e., a model control group, a positive control group, and test compound groups (dgc005, dgc016, and dgc020), respectively, 5 mice in each group, which were administered every day by subcutaneous injection. Saline was subcutaneously injected in the blank control group and the model control group every day. The administration was performed for 23 days. The positive control drug and the test compounds were administered at a dose of 30 nmol/kg, and the administration volume for each group was 0.005 mL/g weight. The mice were weighed before each administration, and 72-h food intake was weighed every three days. The mice fasted for 16 h before the last administration, fasting blood glucose levels were determined, blood was sampled from the orbital venous plexus to determine triglycerides and total cholesterol, and the liver was taken out for pathological section observation.
The liver of each C576L/6 mouse in the groups was fixed with 12% formaldehyde and prepared into a specimen, and the tissue block was repaired, dehydrated with graded alcohol, embedded in paraffin, stained with HE, and examined under a light microscope.

[6] = system: diet-induced obesity (DIO) mice; experiment: DIO mice, weight and blood glucose after multiple administrations at different doses; assay type: in vivo, C57BL/6N mice; details: for Fasting blood glucose (mmol/L) before the last administration / Blood glucose level (mmol/L) 0.5 h after glucose loading / Glycemic load reduction rate: Day 22; for Fasting blood glucose (mmol/L) before the last administration: fasted 16 h; for Blood glucose level (mmol/L) 0.5 h after glucose loading: glucose 1 g/kg intragastric 30 min after administration; for Glycemic load reduction rate: versus model control group; for Reduction rate of weight without fasting on day 21 compared to day 0: n=5
Description: 40 C57BL/6N mice were purchased from Beijing Vital River Laboratory Animal Technology Co., Ltd. Mice in a model group (n=35) were fed with H10060 high-fat diets to obtain diet-induced obesity (DIO) models, mice in a blank control group (n=5) were fed with standard diets, and all the mice were fed for 36 weeks. On the day of the first administration, the mice in the model group were randomly divided into 7 groups according to their weights (within a range of 45-60 g), i.e., a model control group, positive control groups (semaglutide at doses of 10 nmol/kg and 30 nmol/kg, respectively), and test compound groups (dgc005 and dgc016 at doses of 10 nmol/kg and 30 nmol/kg, respectively), 5 mice in each group. The positive control drug and the test compounds were respectively subcutaneously injected into each mouse in the positive control groups and the test compound groups every day, saline was subcutaneously injected into each mouse in the blank control group and the model control group, and the administration was performed for 22 days (the administration volume for each group was 0.005 mL/g weight). The mice were weighed before each administration, and 72-h food intake was weighed every three days. The mice fasted for 16 h before the last administration, and 30 min after administration, a glucose solution (1 g/kg, the administration volume was 0.01 mL/g weight) was intragastrically administered to each mouse for glucose tolerance test. Blood glucose levels were determined 0.5 h after glucose loading.

[7] = after 23 days of administration, 30 nmol/kg s.c. daily, n=5

In the case of CCCCCCCCCCCCCCCC(=O)N[C@@H](CCC(=O)NCCCC[C@H](NC(=O)[C@H](C)NC(=O)[C@H](C)NC(=O)[C@H](CCCNC(=N)N)NC(=O)[C@H](CCC(=O)O)NC(=O)[C@H](CC(=O)O)NC(=O)[C@H](CC(C)C)NC(=O)[C@H](Cc1ccc(O)cc1)NC(=O)[C@H](CCCCN)NC(=O)[C@H](CO)NC(=O)[C@H](Cc1ccc(O)cc1)NC(=O)[C@H](CC(=O)O)NC(=O)[C@H](CO)NC(=O)[C@@H](NC(=O)[C@H](Cc1ccccc1)NC(=O)[C@@H](NC(=O)CNC(=O)[C@H](CCC(N)=O)NC(=O)C(C)(C)NC(=O)[C@@H](N)Cc1c[nH]cn1)[C@@H](C)O)[C@@H](C)O)C(=O)N[C@@H](CCC(=O)O)C(=O)N[C@@H](Cc1ccccc1)C(=O)N[C@H](C(=O)N[C@@H](C)C(=O)N[C@@H](Cc1c[nH]c2ccccc12)C(=O)N[C@@H](CC(C)C)C(=O)N[C@@H](CCC(=O)O)C(=O)N[C@@H](C)C(=O)NCC(=O)NCC(N)=O)[C@@H](C)CC)C(=O)O [dgc003] (HELM PEPTIDE1{H.[Aib].Q.G.T.F.T.S.D.Y.S.K.Y.L.D.E.R.A.A.K.E.F.I.A.W.L.E.A.G.G.[am]}|PEPTIDE2{[CCCCCCCCCCCCCCCC(=O)[*:2]].[gGlu]}$PEPTIDE1,PEPTIDE2,20:R3-2:R2$$$V2.0; N-terminus assumed), the “Blood glucose reduction rate (%)” value [1] is reported as 48.12%, the “Blood glucose level after glucose loading” value [1] is reported as 8.82 ± 1.63 mmol/L and the “Fasting blood glucose level” value [1] is reported as 4.20 ± 0.97 mmol/L. The EC50 [2] was 1.04 nM, the EC50 [3] was 0.291 nM and the “Weight decreasing rate by the last administration” value [4] was 16.7%.
For CCCCCCCCCCCCCCCC(=O)N[C@@H](CCC(=O)NCCCC[C@H](NC(=O)[C@H](C)NC(=O)[C@H](C)NC(=O)[C@H](CCCNC(=N)N)NC(=O)[C@H](CCC(=O)O)NC(=O)[C@H](CCC(=O)O)NC(=O)[C@H](CC(C)C)NC(=O)[C@H](Cc1ccc(O)cc1)NC(=O)[C@H](CCCCN)NC(=O)[C@H](CO)NC(=O)[C@H](Cc1ccc(O)cc1)NC(=O)[C@H](CC(=O)O)NC(=O)[C@H](CO)NC(=O)[C@@H](NC(=O)[C@H](Cc1ccccc1)NC(=O)[C@@H](NC(=O)CNC(=O)[C@H](CCC(N)=O)NC(=O)C(C)(C)NC(=O)[C@@H](N)Cc1c[nH]cn1)[C@@H](C)O)[C@@H](C)O)C(=O)N[C@@H](CCC(=O)O)C(=O)N[C@@H](Cc1ccccc1)C(=O)N[C@H](C(=O)N[C@@H](C)C(=O)N[C@@H](Cc1c[nH]c2ccccc12)C(=O)N[C@@H](CC(C)C)C(=O)N[C@@H](CCC(=O)O)C(=O)N[C@@H](C)C(=O)NCC(=O)NCC(N)=O)[C@@H](C)CC)C(=O)O [dgc004] (HELM PEPTIDE1{H.[Aib].Q.G.T.F.T.S.D.Y.S.K.Y.L.E.E.R.A.A.K.E.F.I.A.W.L.E.A.G.G.[am]}|PEPTIDE2{[CCCCCCCCCCCCCCCC(=O)[*:2]].[gGlu]}$PEPTIDE1,PEPTIDE2,20:R3-2:R2$$$V2.0; N-terminus assumed), the “Blood glucose reduction rate (%)” value [1] was 50.24%, the “Blood glucose level after glucose loading” value [1] was 8.46 ± 2.28 mmol/L and the “Fasting blood glucose level” value [1] was 3.42 ± 0.85 mmol/L. For the same compound, the EC50 [2] was 5.84 nM, the EC50 [3] was 0.113 nM and the “Weight decreasing rate by the last administration” value [4] was 19.9%.
With CCCCCCCCCCCCCCCC(=O)N[C@@H](CCC(=O)N[C@@H](CCC(=O)NCCCC[C@H](NC(=O)[C@H](C)NC(=O)[C@H](C)NC(=O)[C@H](CCCNC(=N)N)NC(=O)[C@H](CCC(=O)O)NC(=O)[C@H](CCC(=O)O)NC(=O)[C@H](CC(C)C)NC(=O)[C@H](Cc1ccc(O)cc1)NC(=O)[C@H](CCCCN)NC(=O)[C@H](CO)NC(=O)[C@H](Cc1ccc(O)cc1)NC(=O)[C@H](CC(=O)O)NC(=O)[C@H](CO)NC(=O)[C@@H](NC(=O)[C@H](Cc1ccccc1)NC(=O)[C@@H](NC(=O)CNC(=O)[C@H](CCC(N)=O)NC(=O)C(C)(C)NC(=O)[C@@H](N)Cc1c[nH]cn1)[C@@H](C)O)[C@@H](C)O)C(=O)N[C@@H](CCC(=O)O)C(=O)N[C@@H](Cc1ccccc1)C(=O)N[C@H](C(=O)N[C@@H](C)C(=O)N[C@@H](Cc1c[nH]c2ccccc12)C(=O)N[C@@H](CC(C)C)C(=O)N[C@@H](CCC(=O)O)C(=O)N[C@@H](CO)C(=O)NCC(=O)NCC(N)=O)[C@@H](C)CC)C(=O)O)C(=O)O [dgc010] (HELM PEPTIDE1{H.[Aib].Q.G.T.F.T.S.D.Y.S.K.Y.L.E.E.R.A.A.K.E.F.I.A.W.L.E.S.G.G.[am]}|PEPTIDE2{[CCCCCCCCCCCCCCCC(=O)[*:2]].[gGlu].[gGlu]}$PEPTIDE1,PEPTIDE2,20:R3-3:R2$$$V2.0; N-terminus assumed) the “Blood glucose reduction rate (%)” value [1] was 52.35%, the “Blood glucose level after glucose loading” value [1] was 8.10 ± 1.13 mmol/L and the “Fasting blood glucose level” value [1] was 3.78 ± 0.84 mmol/L. For the same compound, the EC50 [2] was 0.614 nM, the EC50 [3] was 0.537 nM and the “Weight decreasing rate by the last administration” value [4] was 16.4%.
With “semaglutide [Positive control group, reference compound]” the “Blood glucose reduction rate (%)” value [1] was 67.18%, the “Blood glucose level after glucose loading” value [1] was 5.58 ± 1.55**^ mmol/L and the “Fasting blood glucose level” value [1] was 3.78 ± 1.28 mmol/L. For the same compound, the “Fasting blood glucose (mmol/L) before the last administration” value ([5]; 30 nmol/kg s.c. daily, 23 days, fasted 16 h, n=5) was 4.48 ± 0.84 mmol/L, the Weight decreasing rate ([5]; 30 nmol/kg s.c. every day, without fasting before the last administration compared to day 1) was 20.9% and the “Examination of liver pathological section” value ([5]; 23 days, 30 nmol/kg s.c. daily, HE stain, 2 animals) was “mild to moderate lesions”. For the same compound, the “TC (total cholesterol)” value [5, 7] was 3.97 ± 0.52^Δ mmol/L, the “TG (triglycerides)” value [5, 7] was 0.90 ± 0.13**^ΔΔ mmol/L and the 72-h food intake ([5]; day 4 of administration, 30 nmol/kg s.c. daily) was 3.50 g/mouse. It also gave a 72-h food intake ([5]; day 7 of administration, 30 nmol/kg s.c. daily) of 5.80 g/mouse, a 72-h food intake ([5]; day 10 of administration, 30 nmol/kg s.c. daily) of 5.40 g/mouse and a 72-h food intake ([5]; day 13 of administration, 30 nmol/kg s.c. daily) of 5.50 g/mouse. For the same compound, the “Weight decreasing rate by the last administration” value [4] was 12.9%, the “Fasting blood glucose (mmol/L) before the last administration” value ([6]; 10 nmol/kg s.c. daily) was 5.54 ± 1.11 mmol/L and the “Blood glucose level (mmol/L) 0.5 h after glucose loading” value ([6]; 10 nmol/kg s.c. daily) was 7.06 ± 1.15 mmol/L. The “Glycemic load reduction rate” value ([6]; 10 nmol/kg s.c. daily) was 32.89, the “Reduction rate of weight without fasting on day 21 compared to day 0” value ([6]; 10 nmol/kg s.c. every day) was 15.28% and the “Fasting blood glucose (mmol/L) before the last administration” value ([6]; 30 nmol/kg s.c. daily) was 5.56 ± 0.91 mmol/L. The “Blood glucose level (mmol/L) 0.5 h after glucose loading” value ([6]; 30 nmol/kg s.c. daily) was 8.20 ± 0.87 mmol/L, the “Glycemic load reduction rate” value ([6]; 30 nmol/kg s.c. daily) was 22.05 and the “Reduction rate of weight without fasting on day 21 compared to day 0” value ([6]; 30 nmol/kg s.c. every day) was 18.83%.
